14 molecules from patent publication USRE49735E1 (BRISTOL-MYERS SQUIBB COMPANY, priority 2010, dated 2023) can be followed below.

In general, EC50 refers to the concentration that produces a half-maximal response. The low end stands for a more potent agent, the high end for a less potent agent.

“And” between values parts separate entries of the source, which are not always exact repeats. Equal entries are not always repeated.

Chain of human mGluR5A (P41594 21-1180 isoform P41594-2): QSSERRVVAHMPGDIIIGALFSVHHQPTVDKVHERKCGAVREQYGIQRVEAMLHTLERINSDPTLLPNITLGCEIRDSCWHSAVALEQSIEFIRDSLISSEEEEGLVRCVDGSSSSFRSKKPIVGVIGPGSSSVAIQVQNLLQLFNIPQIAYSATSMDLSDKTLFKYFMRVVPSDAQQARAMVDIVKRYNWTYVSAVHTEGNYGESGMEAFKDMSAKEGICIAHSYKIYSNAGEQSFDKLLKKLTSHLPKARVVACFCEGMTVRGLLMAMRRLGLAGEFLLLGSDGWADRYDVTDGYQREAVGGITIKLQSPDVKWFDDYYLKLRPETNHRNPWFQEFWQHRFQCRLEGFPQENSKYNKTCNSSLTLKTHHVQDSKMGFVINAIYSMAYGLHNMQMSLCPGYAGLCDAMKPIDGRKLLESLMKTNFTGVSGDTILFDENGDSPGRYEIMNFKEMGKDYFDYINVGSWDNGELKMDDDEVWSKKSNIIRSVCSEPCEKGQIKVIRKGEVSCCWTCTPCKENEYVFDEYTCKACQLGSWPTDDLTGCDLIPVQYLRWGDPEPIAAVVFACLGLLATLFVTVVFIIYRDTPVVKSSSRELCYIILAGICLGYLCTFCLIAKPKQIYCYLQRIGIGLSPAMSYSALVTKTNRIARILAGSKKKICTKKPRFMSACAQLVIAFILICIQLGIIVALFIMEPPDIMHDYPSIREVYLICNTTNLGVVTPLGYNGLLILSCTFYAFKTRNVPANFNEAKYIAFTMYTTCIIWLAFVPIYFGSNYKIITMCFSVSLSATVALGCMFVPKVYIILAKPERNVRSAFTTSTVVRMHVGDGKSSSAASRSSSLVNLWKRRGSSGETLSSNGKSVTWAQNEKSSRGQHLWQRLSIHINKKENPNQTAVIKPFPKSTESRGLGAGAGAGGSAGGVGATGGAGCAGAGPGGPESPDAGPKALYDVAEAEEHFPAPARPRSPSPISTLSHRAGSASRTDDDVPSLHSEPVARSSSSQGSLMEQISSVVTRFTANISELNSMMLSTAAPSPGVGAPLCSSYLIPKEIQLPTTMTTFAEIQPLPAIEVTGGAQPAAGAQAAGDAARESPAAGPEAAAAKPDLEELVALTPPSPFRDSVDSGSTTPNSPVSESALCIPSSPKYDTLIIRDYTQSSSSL

The assay concerns the target human mGluR5A (Homo sapiens, UniProt P41594). Briefly: mGluR5 FLIPR Assay. The assay is classed as cell-based. Particulars: positive modulator activity; HEK293 (ZF) cells with human mGluR5A and rat GLAST; Ca++ response to ~EC10 glutamate.
`O=C1N[C@H](c2cncc(C#Cc3cc(Cl)cc(Cl)c3)c2)[C@@H](c2cc(F)ccc2F)O1` [Example 389, (4R,5R)-4-(5-((3,5-Dichlorophenyl)ethynyl)pyridin-3-yl)-5-(2,5-difluorophenyl)oxazolidin-2-one] displayed an EC50 of over 1000 nM.

Consider `Cc1ccccc1C#Cc1cncc([C@H]2NC(=O)O[C@@H]2c2cc(F)ccc2F)c1` [Example 390, (4R,5R)-5-(2,5-difluorophenyl)-4-(5-(o-tolylethynyl)pyridin-3-yl)oxazolidin-2-one], for which the EC50 fell in the range of 100 to 1000 nM.

For `N#Cc1ccc(C#Cc2cncc([C@H]3NC(=O)O[C@@H]3c3cc(F)ccc3F)c2)cc1` [Example 391, 4-((5-((4R,5R)-5-(2,5-difluorophenyl)-2-oxooxazolidin-4-yl)pyridin-3-yl)ethynyl)benzonitrile], the EC50 was over 1000 nM.

As for `O=C1N[C@H](c2cncc(C#Cc3ccccc3Cl)c2)[C@@H](c2cc(F)ccc2F)O1` [Example 392, (4R,5R)-4-(5-((2-chlorophenyl)ethynyl)pyridin-3-yl)-5-(2,5-difluorophenyl)oxazolidin-2-one], the EC50 was under 100 nM.

As to `O=C1N[C@H](c2cncc(C#Cc3ccnnc3)c2)[C@@H](c2cc(F)ccc2F)O1` [Example 393, (4R,5R)-5-(2,5-difluorophenyl)-4-(5-(pyridazin-4-ylethynyl)pyridin-3-yl)oxazolidin-2-one], the EC50 is over 1000 nM.

The molecule `O=C1N[C@H](c2cncc(C#Cc3ccncn3)c2)[C@@H](c2cc(F)ccc2F)O1` [Example 394, (4R,5R)-5-(2,5-difluorophenyl)-4-(5-(pyrimidin-4-ylethynyl)pyridin-3-yl)oxazolidin-2-one] showed an EC50 of over 1000 nM.

For the molecule `O=C1N[C@H](c2cncc(C#Cc3cncnc3)c2)[C@@H](c2cc(F)ccc2F)O1` [Example 395, (4R,5R)-5-(2,5-difluorophenyl)-4-(5-(pyrimidin-5-ylethynyl)pyridin-3-yl)oxazolidin-2-one], the EC50 lay within 100 to 1000 nM.

In turn, `O=C1N[C@H](c2cncc(C#Cc3cnccn3)c2)[C@@H](c2cc(F)ccc2F)O1` [Example 396, (4R,5R)-5-(2,5-difluorophenyl)-4-(5-(pyrazin-2-ylethynyl)pyridin-3-yl)oxazolidin-2-one] had an EC50 of under 100 nM.

Consider `O=C1N[C@H](c2cncc(C#Cc3cnccn3)c2)[C@@H](c2cccc(F)c2)O1` [Example 397, (4R,5R)-5-(3-Fluorophenyl)-4-(5-(pyrazin-2-ylethynyl)pyridin-3-yl)oxazolidin-2-one], for which the EC50 is under 100 nM.

Consider `O=C1N[C@H](c2cncc(C#Cc3cncnc3)c2)[C@@H](c2cccc(F)c2)O1` [Example 398, (4R,5R)-5-(3-fluorophenyl)-4-(5-(pyrimidin-5-ylethynyl)pyridin-3-yl)oxazolidin-2-one], for which the EC50 is 100 to 1000 nM and 141 nM.

As for `O=C1N[C@H](c2cncc(C#Cc3ccccc3Cl)c2)[C@@H](c2cccc(F)c2)O1` [Example 399, (4R,5R)-4-(5-((2-chlorophenyl)ethynyl)pyridin-3-yl)-5-(3-fluorophenyl)oxazolidin-2-one], the EC50 was under 100 nM.

For the molecule `O=C1N[C@H](c2cncc(C#Cc3cccc(F)c3)c2)[C@@H](c2cccc(F)c2)O1` [Example 400, (4R,5R)-5-(3-fluorophenyl)-4-(5-((3-fluorophenyl)ethynyl)pyridin-3-yl)oxazolidin-2-one], the EC50 was under 100 nM.

Take `Cc1cccc(C#Cc2cncc([C@H]3NC(=O)O[C@@H]3c3cccc(F)c3)c2)c1` [Example 401, (4R,5R)-5-(3-fluorophenyl)-4-(5-(m-tolylethynyl)pyridin-3-yl)oxazolidin-2-one]: the EC50 was under 100 nM.

The molecule `O=C1N[C@H](c2cncc(C#Cc3cccc(C(F)(F)F)c3)c2)[C@@H](c2cccc(F)c2)O1` [Example 402, (4R,5R)-5-(3-fluorophenyl)-4-(5((3-(trifluoromethyl)phenyl)ethynyl)pyridin-3-yl)oxazolidin-2-one] registered an EC50 of over 3000 nM.
